From US10336775B2 (Asceneuron SA, priority 2014, dated 2019)

target: His-Tagged hOGA (human O-GlcNAcase) (Homo sapiens (Human), UniProt O60502); assay: Human O-GlcNAcase enzyme inhibition assay (Example B01); format: biochemical; conditions: OGA IC50 (M), OGA enzyme inhibition assay; activity range classes defined in μM
Sequence (O60502 whole entry): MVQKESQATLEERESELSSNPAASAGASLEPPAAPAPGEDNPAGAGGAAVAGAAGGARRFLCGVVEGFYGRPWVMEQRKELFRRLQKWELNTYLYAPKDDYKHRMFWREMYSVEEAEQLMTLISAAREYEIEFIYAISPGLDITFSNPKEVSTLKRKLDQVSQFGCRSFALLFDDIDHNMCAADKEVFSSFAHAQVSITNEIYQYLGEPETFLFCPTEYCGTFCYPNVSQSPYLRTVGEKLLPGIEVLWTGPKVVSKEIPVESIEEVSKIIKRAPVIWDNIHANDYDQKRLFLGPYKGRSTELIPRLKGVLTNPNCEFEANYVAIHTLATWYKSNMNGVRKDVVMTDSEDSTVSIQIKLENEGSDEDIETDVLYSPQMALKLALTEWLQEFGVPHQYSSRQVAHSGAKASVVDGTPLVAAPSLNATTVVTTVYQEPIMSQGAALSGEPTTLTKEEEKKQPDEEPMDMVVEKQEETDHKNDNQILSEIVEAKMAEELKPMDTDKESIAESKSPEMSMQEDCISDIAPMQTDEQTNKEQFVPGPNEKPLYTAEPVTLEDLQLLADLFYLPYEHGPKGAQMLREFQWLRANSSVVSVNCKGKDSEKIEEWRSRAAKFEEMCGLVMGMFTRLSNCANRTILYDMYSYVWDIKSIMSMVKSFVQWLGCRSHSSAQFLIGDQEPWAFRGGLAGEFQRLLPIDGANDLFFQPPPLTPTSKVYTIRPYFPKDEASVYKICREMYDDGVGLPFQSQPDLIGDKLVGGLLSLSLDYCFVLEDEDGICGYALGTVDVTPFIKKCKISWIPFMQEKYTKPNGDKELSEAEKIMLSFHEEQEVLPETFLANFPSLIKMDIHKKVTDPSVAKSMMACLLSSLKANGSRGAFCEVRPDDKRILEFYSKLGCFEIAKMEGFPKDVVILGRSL

Compound	IC50
CC(c1ccc2nccnc2c1)N1CCN(c2nc3cnccc3s2)CC1 (racemic) [Example 140, 2-(4-(1-(quinoxalin-6-yl)ethyl)piperazin-1-yl)thiazolo[4,5-c]pyridine]	2e-07 to 1e-06 M

same assay, conditions: OGA enzyme inhibition assay; activity range classes defined in μM; read-out: OGA IC50

Compound	IC50
CC(c1ccc2c(c1)OCO2)N1CCN(c2nnc(NC(=O)C3CC3)s2)CC1 (racemic) [Example 108, N-(5-(4-(1-(benzo[d][1,3]dioxol-5-yl)ethyl)piperazin-1-yl)-1,3,4-thiadiazol-2-yl)cyclo propanecarboxamide]	< 5e-08 M
CC(c1ccc2c(c1)OCO2)N1CCN(c2ccnc(Cl)n2)CC1 (racemic) [Example 40, 4-(4-(1-(Benzo[d][1,3]dioxol-5-yl)ethyl)piperazin-1-yl)-2-chloropyrimidine]	5e-08 to 2e-07 M
C[C@@H](c1ccc2c(c1)OCO2)N1CCN(c2nnc(NC(=O)CCO)s2)CC1 [Example 171]	< 5e-08 M
CNC(=O)c1cnc(N2CCN([C@@H](C)c3ccc4c(c3)OCO4)CC2)nc1 [Example 134, (S) 2-(4-(1-(benzo[d][1,3]dioxol-5-yl)ethyl)piperazin-1-yl)-N-methylpyrimidine-5-carboxamide]	< 5e-08 M
CC(c1ccc2c(c1)OCO2)N1CCN(c2cnc(Cl)cn2)CC1 (racemic) [Example 25]	5e-08 to 2e-07 M
C[C@@H](c1ccc2c(c1)OCO2)N1CCN(c2ccc(CO)cn2)CC1 [Example 185, (S)-(6-(4-(1-(benzo[d][1,3]dioxol-5-yl)ethyl)piperazin-1-yl)pyridin-3-yl)methanol]	< 5e-08 M
CC(C)c1csc(N2CCN(C(C)c3ccc4c(c3)OCO4)CC2)n1 (racemic) [Example 12, 2-(4-(1-(Benzo[d][1,3]dioxol-5-yl)ethyl)piperazin-1-yl)-4-isopropylthiazole]	2e-07 to 1e-06 M
CC(c1ccc2c(c1)OCO2)N1CCN(c2ncc3ccccc3n2)CC1 (racemic) [Example 119, 2-(4-(1-(benzo[d][1,3]dioxol-5-yl)ethyl)piperazin-1-yl)quinazoline]	5e-08 to 2e-07 M
CC(=O)Nc1ccnc(N2CCN(C(C)c3ccc4c(c3)OCO4)CC2)n1 (racemic) [Example 23, N-(2-(4-(1-(Benzo[d][1,3]dioxol-5-yl)ethyl)piperazin-1-yl)pyrimidin-4-yl)acetamide]	5e-08 to 2e-07 M
CC(=O)N1CCc2nc(N3CCN([C@@H](C)c4ccc5c(c4)OCO5)CC3)sc2C1 [Example 184, (S)-1-(2-(4-(1-(benzo[d][1,3]dioxol-5-yl)ethyl)piperazin-1-yl)-6,7-dihydrothiazolo[5,4-c]pyridin-5(4H)-yl)ethan-1-one]	< 5e-08 M
N-(2-(4-(1-(3,4-Dichlorophenyl)ethyl)piperazin-1-yl)thiazol-5-yl)acetamide [Example 87]	1e-06 to 1e-05 M
CC(c1ccc2c(c1)OCO2)N1CCN(c2ccc(Cl)cn2)CC1 (racemic) [Example 20]	2e-07 to 1e-06 M
CC(=O)Nc1nnc(N2CCN(C(C)c3ccc4cc(Cl)cnc4c3)CC2)s1 (racemic) [Example 124]	1e-06 to 1e-05 M
C[C@@H](c1ccc2c(c1)OCO2)N1CCN(c2ncc(C3(O)CCOCC3)cn2)CC1 [Example 188, (S)-4-(2-(4-(1-(benzo[d][1,3]dioxol-5-yl)ethyl)piperazin-1-yl)pyrimidin-5-yl)tetrahydro-2H-pyran-4-ol]	< 5e-08 M
CCOC(=O)c1csc(N2CCN(C(C)c3ccc4c(c3)OCO4)CC2)n1 (racemic) [Example 17, Ethyl 2-(4-(1-(benzo[d][1,3]dioxol-5-yl)ethyl)piperazin-1-yl)thiazole-4-carboxylate]	2e-07 to 1e-06 M
CC(c1ccc2c(c1)OCO2)N1CCN(c2ccc(N)cn2)CC1 (racemic) [Example 58, 6-(4-(1-(Benzo[d][1,3]dioxol-5-yl)ethyl)piperazin-1-yl)pyridin-3-amine]	5e-08 to 2e-07 M
CC(c1ccc2c(c1)OCO2)N1CCN(c2ncc3cc[nH]c3n2)CC1 (racemic) [Example 113, 2-(4-(1-(benzo[d][1,3]dioxol-5-yl)ethyl)piperazin-1-yl)-7H-pyrrolo[2,3-d]pyrimidine]	5e-08 to 2e-07 M
CCCNc1nnc(N2CCN([C@@H](C)c3ccc4c(c3)OCO4)CC2)s1 [Example 142, (S)-5-(4-(1-(benzo[d][1,3]dioxol-5-yl)ethyl)piperazin-1-yl)-N-propyl-1,3,4-thiadiazol-2-amine]	5e-08 to 2e-07 M
CC(C)C(=O)Nc1nnc(N2CCN(C(C)c3ccc4c(c3)OCO4)CC2)s1 (racemic) [Example 107, N-(5-(4-(1-(benzo[d][1,3]dioxol-5-yl)ethyl)piperazin-1-yl)-1,3,4-thiadiazol-2-yl)isobutyramide]	< 5e-08 M
CCNc1nnc(N2CCN(C(C)c3ccc4c(c3)OCO4)CC2)s1 (racemic) [Example 112, 5-(4-(1-(benzo[d][1,3]dioxol-5-yl)ethyl)piperazin-1-yl)-N-ethyl-1,3,4-thiadiazol-2-amine]	5e-08 to 2e-07 M

Compound	IC50
C[C@@H](c1ccc2c(c1)OCO2)N1CCN(c2ncc(C(=O)N(C)C)cn2)CC1 [Example 137, (S)-2-(4-(1-(benzo[d][1,3]dioxol-5-yl)ethyl)piperazin-1-yl)-N,N-dimethylpyrimidine-5-carboxamide]	< 5e-08 M
CC(=O)Nc1nnc(N2CCN(C(C)c3ccc4cccnc4c3)CC2)s1 (racemic) [Example 115, N-(5-(4-(1-(quinolin-7-yl)ethyl)piperazin-1-yl)-1,3,4-thiadiazol-2-yl)acetamide]	5e-08 to 2e-07 M
CC(c1ccc2nccnc2c1)N1CCN(c2ncccn2)CC1 (racemic) [Example 83, 6-(1-(4-(pyrimidin-2-yl)piperazin-1-yl)ethyl)quinoxaline]	5e-08 to 2e-07 M
CC(=O)Nc1cnc(N2CCN(C(C)c3ccc4sc(C)nc4c3)CC2)nc1 (racemic) [Example 169, N-(2-(4-(1-(2-methylbenzo[d]thiazol-5-yl)ethyl)piperazin-1-yl)pyrimidin-5-yl)acetamide]	< 5e-08 M
Cc1cnc(N2CCN(C(C)c3ccc4nccnc4c3)CC2)nc1 (racemic) [Example 102, 6-(1-(4-(5-Methylpyrimidin-2-yl)piperazin-1-yl)ethyl)quinoxaline]	5e-08 to 2e-07 M
CC(=O)Nc1cnc(N2CCN(C(C)c3ccc4nccnc4c3)CC2)nc1 (racemic) [Example 93, N-(2-(4-(1-(quinoxalin-6-yl)ethyl)piperazin-1-yl)pyrimidin-5-yl)acetamide]	< 5e-08 M
CC(c1ccc2c(c1)OCO2)N1CCN(c2nc(C(=O)O)cs2)CC1 (racemic) [Example 18, 2-(4-(1-(Benzo[d][1,3]dioxol-5-yl)ethyl)piperazin-1-yl)thiazole-4-carboxylic acid]	5e-08 to 2e-07 M
CC(c1ccc2c(c1)OCO2)N1CCN(c2nnc(NC(=O)c3ccc(Cl)cc3)s2)CC1 (racemic) [Example 110, N-(5-(4-(1-(benzo[d][1,3]dioxol-5-yl)ethyl)piperazin-1-yl)-1,3,4-thiadiazol-2-yl)-4-chlorobenzamide]	5e-08 to 2e-07 M
CC(c1ccc2c(c1)OCO2)N1CCN(c2ncc(CO)cn2)CC1 (racemic) [Example 52, (2-(4-(1-(benzo[d][1,3]dioxol-5-yl)ethyl)piperazin-1-yl)pyrimidin-5-yl)methanol]	< 5e-08 M
COc1ccc(-c2csc(N3CCN(C(C)c4ccc5c(c4)OCO5)CC3)n2)cc1 (racemic) [Example 6, 2-(4-(1-(Benzo[d][1,3]dioxol-5-yl)ethyl)piperazin-1-yl)-4-(4-methoxyphenyl)thiazole]	1e-06 to 1e-05 M
Cc1ccc(N2CCN(C(C)c3ccc4c(c3)OCO4)CC2)nc1 (racemic) [Example 14, 1-(1-(Benzo[d][1,3]dioxol-5-yl)ethyl)-4-(5-methylpyridin-2-yl)piperazine]	2e-07 to 1e-06 M
CC(=O)Nc1nccc(N2CCN(C(C)c3ccc4c(c3)OCO4)CC2)n1 (racemic) [Example 54, N-(4-(4-(1-(Benzo[d][1,3]dioxol-5-yl)ethyl)piperazin-1-yl)pyrimidin-2-yl)acetamide]	5e-08 to 2e-07 M
Cc1cnc(N2CCN(C(C)c3ccc4c(c3)OCO4)CC2)s1 (racemic) [Example 36]	5e-08 to 2e-07 M
CC(c1ccc2c(c1)OCO2)N1CCN(c2nccs2)CC1 (racemic) [Example 7, 2-(4-(1-(Benzo[d][1,3]dioxol-5-yl)ethyl)piperazin-1-yl)thiazole]	2e-07 to 1e-06 M
CC(c1ccc2c(c1)OCO2)N1CCN(c2ncc(N)cn2)CC1 (racemic) [Example 70, 2-(4-(1-(Benzo[d][1,3]dioxol-5-yl)ethyl)piperazin-1-yl)pyrimidin-5-amine]	2e-07 to 1e-06 M
CC(=O)Nc1nnc(N2CCN(C(C)c3ccc4scnc4c3)CC2)s1 (single isomer, unassigned) [Example 133, (S)-N-(5-(4-(1-(benzo[d]thiazol-5-yl)ethyl)piperazin-1-yl)-1,3,4-thiadiazol-2-yl)acetamide or ((R)-N-(5-(4-(1-(benzo[d]thiazol-5-yl)ethyl)piperazin-1-yl)-1,3,4-thiadiazol-2-yl)acetamide]	< 5e-08 M
CC(=O)Nc1nnc(N2CCN(C(C)c3ccc4c(c3)OCCO4)CC2)s1 (racemic) [Example 97, N-(5-(4-(1-(2,3-Dihydrobenzo[b][1,4]dioxin-6-yl)ethyl)piperazin-1-yl)-1,3,4-thiadiazol-2-yl)acetamide]	< 5e-08 M
CC(=O)Nc1cnc(N2CCN(C(C)c3ccc4c(c3)OC(F)(F)O4)CC2)nc1 (racemic) [Example 118]	2e-07 to 1e-06 M
CNC(=O)c1cnc(N2CCN(C(C)c3ccc4c(c3)OCO4)CC2)nc1 (racemic) [Example 98, 2-(4-(1-(Benzo[d][1,3]dioxol-5-yl)ethyl)piperazin-1-yl)-N-methylpyrimidine-5-carboxamide]	< 5e-08 M

same assay, conditions: measured according to Example B01

Compound	OGA inhibitor activity (in words)
CNC(=O)c1cnc(N2CCN([C@@H](C)c3ccc4c(c3)OCO4)CC2)nc1 [Example 134, (S) 2-(4-(1-(benzo[d][1,3]dioxol-5-yl)ethyl)piperazin-1-yl)-N-methylpyrimidine-5-carboxamide]	very potent OGA inhibitors
CC(c1ccc(Cl)cc1)N1CCN(c2ccc3ccccc3n2)CC1 (stereo not drawn) [compound 5 of WO 99/21850, reference compound]	not active as OGA inhibitors
CC(c1ccc2c(c1)OCCO2)N1CCN(c2ncccn2)CC1 (single isomer, unassigned) [Example 34]	very potent OGA inhibitors
C[C@@H](c1ccc2c(c1)OCO2)N1CCN(c2ncc(C(=O)N(C)C)cn2)CC1 [Example 137, (S)-2-(4-(1-(benzo[d][1,3]dioxol-5-yl)ethyl)piperazin-1-yl)-N,N-dimethylpyrimidine-5-carboxamide]	very potent OGA inhibitors
CC(c1ccc2c(c1)OCO2)N1CCN(c2ncc(CO)cn2)CC1 (racemic) [Example 52, (2-(4-(1-(benzo[d][1,3]dioxol-5-yl)ethyl)piperazin-1-yl)pyrimidin-5-yl)methanol]	very potent OGA inhibitors
